# Species: Rattus norvegicus
# Experiment: DrugMatrix - Regimen: Daily Repeat
# Type: toxicity, organism-based, Sprague-Dawley
# Design: regimen Daily Repeat, gender Male, age 6-8 weeks
# Conditions: in vivo, po, route oral GAVAGE, […]; for ABSOLUTE BASOPHIL / ABSOLUTE EOSINOPHIL / ABSOLUTE LYMPHOCYTE / ABSOLUTE MONOCYTE / ABSOLUTE SEGMENTED NEUTROPHIL / BASOPHIL / EOSINOPHIL / ERYTHROCYTE COUNT / HEMATOCRIT / HEMOGLOBIN / LEUKOCYTE COUNT / LYMPHOCYTE / MEAN CORPUSCULAR HEMOGLOBIN / MEAN CORPUSCULAR HEMOGLOBIN CONCENTRATION / MEAN CORPUSCULAR VOLUME / MONOCYTE / NEUTROPHIL / NUCLEATED RED BLOOD CELLS / PLATELET COUNT: tissue Blood; for ALANINE AMINOTRANSFERASE / ALBUMIN / ALKALINE PHOSPHATASE / ASPARTATE AMINOTRANSFERASE / BLOOD UREA NITROGEN / CARBON DIOXIDE / CHLORIDE / CHOLESTEROL / CREATINE PHOSPHOKINASE / CREATININE / GLUCOSE / LACTATE DEHYDROGENASE / LIPASE / PHOSPHORUS / POTASSIUM / SODIUM / TOTAL BILIRUBIN / TOTAL PROTEIN / URIC ACID: tissue Plasma
# [1] = 20 mg/kg, 120 h, dose level Low, time 5 day
# [2] = 200 mg/kg, 72 h, dose level High, time 3 day
# [3] = 200 mg/kg, 120 h, dose level High, time 5 day
# [4] = 200 mg/kg, dose level High, time 28 day
compound,measurement,setting,value
CCCCCCCCCc1ccc(O)cc1 [4-NONYLPHENOL],ABSOLUTE BASOPHIL,[1],0 CELLS/uL
same,ABSOLUTE EOSINOPHIL,[1],0 CELLS/uL
same,ABSOLUTE LYMPHOCYTE,[1],17193.33 CELLS/uL
same,ABSOLUTE MONOCYTE,[1],138.33 CELLS/uL
same,ABSOLUTE SEGMENTED NEUTROPHIL,[1],1901.67 CELLS/uL
same,BASOPHIL,[1],0%
same,EOSINOPHIL,[1],0%
same,ERYTHROCYTE COUNT,[1],5.43 x10E6/uL
same,HEMATOCRIT,[1],34.2%
same,HEMOGLOBIN,[1],13.17 G/DL
same,LEUKOCYTE COUNT,[1],19.23 x10E3/uL
same,LYMPHOCYTE,[1],89.67%
same,MEAN CORPUSCULAR HEMOGLOBIN,[1],24.2 pg
same,MEAN CORPUSCULAR HEMOGLOBIN CONCENTRATION,[1],38.5 G/DL
same,MEAN CORPUSCULAR VOLUME,[1],62.9 fL
same,MONOCYTE,[1],0.67%
same,NEUTROPHIL,[1],9.67%
same,NUCLEATED RED BLOOD CELLS,[1],0 /100WBC
same,PLATELET COUNT,[1],1124 x10E3/uL
same,ALANINE AMINOTRANSFERASE,[1],65.33 u/L
same,ALBUMIN,[1],3.77 G/DL
same,ALKALINE PHOSPHATASE,[1],413 u/L
same,ASPARTATE AMINOTRANSFERASE,[1],82.67 u/L
same,BLOOD UREA NITROGEN,[1],15.67 mg/dL
same,CARBON DIOXIDE,[1],25.67 mmol/L
same,CHLORIDE,[1],102.33 MEQ/L
same,CHOLESTEROL,[1],56.33 mg/dL
same,CREATINE PHOSPHOKINASE,[1],278 u/L
same,CREATININE,[1],0.21 mg/dL
same,GLUCOSE,[1],202.33 mg/dL
same,LACTATE DEHYDROGENASE,[1],147 u/L
same,LIPASE,[1],10.67 u/L
same,PHOSPHORUS,[1],10.77 mg/dL
same,POTASSIUM,[1],5.35 MEQ/L
same,SODIUM,[1],142.1 MEQ/L
same,TOTAL BILIRUBIN,[1],0.2 mg/dL
same,TOTAL PROTEIN,[1],5.57 G/DL
same,URIC ACID,[1],1.3 mg/dL
same,ABSOLUTE BASOPHIL,[2],0 CELLS/uL
same,ABSOLUTE EOSINOPHIL,[2],0 CELLS/uL
same,ABSOLUTE LYMPHOCYTE,[2],7018 CELLS/uL
same,ABSOLUTE MONOCYTE,[2],153.33 CELLS/uL
same,ABSOLUTE SEGMENTED NEUTROPHIL,[2],495.33 CELLS/uL
same,BASOPHIL,[2],0%
same,EOSINOPHIL,[2],0%
same,ERYTHROCYTE COUNT,[2],5.58 x10E6/uL
same,HEMATOCRIT,[2],35.4%
same,HEMOGLOBIN,[2],13.8 G/DL
same,LEUKOCYTE COUNT,[2],7.67 x10E3/uL
same,LYMPHOCYTE,[2],92%
same,MEAN CORPUSCULAR HEMOGLOBIN,[2],24.73 pg
same,MEAN CORPUSCULAR HEMOGLOBIN CONCENTRATION,[2],39 G/DL
same,MEAN CORPUSCULAR VOLUME,[2],63.47 fL
same,MONOCYTE,[2],2%
same,NEUTROPHIL,[2],6%
same,NUCLEATED RED BLOOD CELLS,[2],0 /100WBC
same,PLATELET COUNT,[2],1128 x10E3/uL
same,ALANINE AMINOTRANSFERASE,[2],81.33 u/L
same,ALBUMIN,[2],3.77 G/DL
same,ALKALINE PHOSPHATASE,[2],503.67 u/L
same,ASPARTATE AMINOTRANSFERASE,[2],95.67 u/L
same,BLOOD UREA NITROGEN,[2],14.33 mg/dL
same,CARBON DIOXIDE,[2],32 mmol/L
same,CHLORIDE,[2],103 MEQ/L
same,CHOLESTEROL,[2],45.33 mg/dL
same,CREATINE PHOSPHOKINASE,[2],276.67 u/L
same,CREATININE,[2],0.21 mg/dL
same,GLUCOSE,[2],139 mg/dL
same,LACTATE DEHYDROGENASE,[2],138.67 u/L
same,LIPASE,[2],10 u/L
same,PHOSPHORUS,[2],10.23 mg/dL
same,POTASSIUM,[2],5.46 MEQ/L
same,SODIUM,[2],145.47 MEQ/L
same,TOTAL BILIRUBIN,[2],0.1 mg/dL
same,TOTAL PROTEIN,[2],5.47 G/DL
same,URIC ACID,[2],0.9 mg/dL
same,ABSOLUTE BASOPHIL,[3],0 CELLS/uL
same,ABSOLUTE EOSINOPHIL,[3],0 CELLS/uL
same,ABSOLUTE LYMPHOCYTE,[3],11098.67 CELLS/uL
same,ABSOLUTE MONOCYTE,[3],165.33 CELLS/uL
same,ABSOLUTE SEGMENTED NEUTROPHIL,[3],402.67 CELLS/uL
same,NUCLEATED RED BLOOD CELLS,[3],0 /100WBC
same,CARBON DIOXIDE,[3],26.67 mmol/L
same,LACTATE DEHYDROGENASE,[3],116.33 u/L
same,LIPASE,[3],10.33 u/L
same,URIC ACID,[3],1.43 mg/dL
same,BASOPHIL,[4],0.42%
same,EOSINOPHIL,[4],0.61%
same,ERYTHROCYTE COUNT,[4],8.21 x10E6/uL
same,HEMATOCRIT,[4],48.61%
same,HEMOGLOBIN,[4],16.26 G/DL
same,LEUKOCYTE COUNT,[4],11.53 x10E3/uL
same,LYMPHOCYTE,[4],85.82%
same,MEAN CORPUSCULAR HEMOGLOBIN,[4],19.84 pg
same,MEAN CORPUSCULAR HEMOGLOBIN CONCENTRATION,[4],33.5 G/DL
same,MEAN CORPUSCULAR VOLUME,[4],59.24 fL
same,MONOCYTE,[4],1.34%
same,NEUTROPHIL,[4],10.54%
same,PLATELET COUNT,[4],1292.8 x10E3/uL
same,ALANINE AMINOTRANSFERASE,[4],29.3 u/L
same,ALBUMIN,[4],3.91 G/DL
same,ALKALINE PHOSPHATASE,[4],186.6 u/L
same,ASPARTATE AMINOTRANSFERASE,[4],70.1 u/L
same,BLOOD UREA NITROGEN,[4],11.8 mg/dL
same,CHLORIDE,[4],107.1 MEQ/L
same,CHOLESTEROL,[4],66 mg/dL
same,CREATINE PHOSPHOKINASE,[4],191.6 u/L
same,CREATININE,[4],0.46 mg/dL
same,GLUCOSE,[4],145.6 mg/dL
same,PHOSPHORUS,[4],12.09 mg/dL
same,POTASSIUM,[4],6.67 MEQ/L
same,SODIUM,[4],149 MEQ/L
same,TOTAL BILIRUBIN,[4],0.23 mg/dL
same,TOTAL PROTEIN,[4],6.7 G/DL
